Assay results published in the supplement of paper PMC8960247.
± gives the standard error.

Experiments:
621-102 (TSC2-deficient) [1] = assay: relative viability vs DMSO; higher = less cytotoxic; settings: serum: 10% FBS, 72 h
621-103 (TSC2-rescued) = assay: as above; settings: serum: 10% FBS, 72 h
621-102 (TSC2-deficient) [2] = assay: relative viability vs DMSO (fraction); higher = less cytotoxic; settings: serum: 0.1% FBS, 72 h
UMB1949 (TSC2-deficient) = assay: as above; settings: serum: 0.1% FBS, 72 h;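 further: renal angiomyolipoma cell lines screened in 384-well plates, viability normalized per plate to DMSO-treated cells, each plate carrying 50 nM rapamycin and 1 µM staurosporine controls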

Structure (SMILES) | relative viability (621-102 (TSC2-deficient) [1]; 0.0001 µM) [%] | relative viability (621-102 (TSC2-deficient) [1]; 0.001 µM) [%] | relative viability (621-102 (TSC2-deficient) [1]; 0.01 µM) [%] | relative viability (621-102 (TSC2-deficient) [1]; 0.1 µM) [%] | relative viability (621-102 (TSC2-deficient) [1]; 1 µM) [%] | relative viability (621-102 (TSC2-deficient) [1]; 10 µM) [%] | relative viability (621-103 (TSC2-rescued); 0.0001 µM) [%] | relative viability (621-103 (TSC2-rescued); 0.001 µM) [%] | relative viability (621-103 (TSC2-rescued); 0.01 µM) [%] | relative viability (621-103 (TSC2-rescued); 0.1 µM) [%] | relative viability (621-103 (TSC2-rescued); 1 µM) [%] | relative viability (621-103 (TSC2-rescued); 10 µM) [%] | relative viability (621-102 (TSC2-deficient) [2]; 0.0128 nM) | relative viability (621-102 (TSC2-deficient) [2]; 0.064 nM) | relative viability (621-102 (TSC2-deficient) [2]; 0.32 nM) | relative viability (621-102 (TSC2-deficient) [2]; 1.6 nM) | relative viability (621-102 (TSC2-deficient) [2]; 8 nM) | relative viability (621-102 (TSC2-deficient) [2]; 40 nM) | relative viability (621-102 (TSC2-deficient) [2]; 200 nM) | relative viability (621-102 (TSC2-deficient) [2]; 1000 nM) | relative viability (621-102 (TSC2-deficient) [2]; 5000 nM) | relative viability (UMB1949 (TSC2-deficient); 0.0128 nM) | relative viability (UMB1949 (TSC2-deficient); 0.064 nM) | relative viability (UMB1949 (TSC2-deficient); 0.32 nM) | relative viability (UMB1949 (TSC2-deficient); 1.6 nM) | relative viability (UMB1949 (TSC2-deficient); 8 nM) | relative viability (UMB1949 (TSC2-deficient); 40 nM) | relative viability (UMB1949 (TSC2-deficient); 200 nM) | relative viability (UMB1949 (TSC2-deficient); 1000 nM) | relative viability (UMB1949 (TSC2-deficient); 5000 nM)
Cc1cnc(NC(=O)Nc2cc(Br)c(C)cc2OC[C@@H]2CNCCO2)cn1 | 72.1 ± 3.7 | 87.9 ± 6.2 | 95 ± 2.5 | 75.8 ± 2.3 | 29.1 ± 0.86 | 26.8 ± 0.86 | 109.5 ± 0.45 | 103.7 ± 0.67 | 102.8 ± 0.59 | 109 ± 4.1 | 84.09 ± 0.55 | 33.7 ± 0.83 | 0.474 | 0.234 | 0.185 | 0.103 | 0.0749 | 0.0522 | 0.0206 | 0.0139 | 0.0111 | 0.911 | 0.655 | 0.375 | 0.158 | 0.27 | 0.00749 | 0.0015 | 0.00258 | 0.00665
CC(C)(C)c1cnc(CSc2cnc(NC(=O)C3CCNCC3)s2)o1 | 102.3 ± 0.73 | 107.6 ± 0.94 | 102 ± 3.9 | 51.1 ± 3.1 | 15.7 ± 0.57 | 8.84 ± 0.46 | 99.3 ± 1.4 | 96.57 ± 0.27 | 96.563 ± 0.042 | 49.5 ± 4.3 | 21.27 ± 0.21 | 16.3 ± 1.4 | 1.06 | 1.14 | 1.02 | 1.07 | 0.654 | 0.112 | 0.00431 | 0.00292 | 0.00164 | 1.14 | 1.05 | 1.1 | 1.12 | 1.07 | 0.771 | 0.00698 | 0.00188 | 0.00107
